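Results reflect a 48-hour exposure of cells in 96-well plates to compound at five concentrations. TGI marks complete inhibition of growth.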
Tests used:
Assay in all cases: DTP human tumour cell line panel, 48 h
[1] = system: A498 renal
[2] = system: PC-3 prostate
[3] = system: LOX IMVI melanoma
[4] = system: ACHN renal
[5] = system: HOP-62 NSCLC
[6] = system: SK-MEL-2 melanoma
[7] = system: SN12C renal
[8] = system: NCI-H226 lung
[9] = system: HS 578T breast
[10] = system: HCT-15 colon
[11] = system: NCI-H460 lung
[12] = system: BT-549 breast
[13] = system: HT29 colon
[14] = system: NCI-H23 lung
[15] = system: SF-295 CNS
[16] = system: RXF 393 renal
[17] = system: HOP-92 NSCLC
[18] = system: 786-0 renal
[19] = system: OVCAR-4 ovarian
[20] = system: KM12 colon
[21] = system: MALME-3M melanoma
[22] = system: NCI-H522 lung
[23] = system: NCI/ADR-RES ovarian
[24] = system: T-47D breast
[25] = system: OVCAR-5 ovarian
[26] = system: IGROV1 ovarian
[27] = system: OVCAR-8 ovarian
[28] = system: UO-31 renal
[29] = system: CCRF-CEM leukemia
[30] = system: MCF7 breast
[31] = system: K-562 leukemia
[32] = system: M14 melanoma
[33] = system: MDA-MB-435
[34] = system: SK-MEL-5 melanoma
[35] = system: MOLT-4 leukemia
[36] = system: EKVX NSCLC
[37] = system: SF-268 CNS
[38] = system: U251 CNS
[39] = system: HCC-2998 colon
[40] = system: CAKI-1 renal
[41] = system: UACC-62 melanoma
[42] = system: MDA-MB-231 breast
[43] = system: SK-MEL-28 melanoma
[44] = system: SK-OV-3 ovarian
[45] = system: SW-620 colon
[46] = system: A549 NSCLC
[47] = system: RPMI-8226 leukemia
[48] = system: COLO 205 colon
[49] = system: HL-60(TB) leukemia
[50] = system: HCT-116 colon
[51] = system: TK-10 renal
[52] = system: MDA-N
[53] = system: DU-145 prostate
[54] = system: UACC-257 melanoma
[55] = system: SNB-19 CNS
[56] = system: SNB-75 CNS
[57] = system: OVCAR-3 ovarian
[58] = system: SR leukemia
[59] = system: SF-539 CNS

## COC(=O)c1c(C#N)c(N)nc2c1CCC2
[1]
  TGI: > 100 µM
[2]
  TGI: > 100 µM
[3]
  TGI: > 100 µM
[4]
  TGI: > 100 µM
[5]
  TGI: > 100 µM
[6]
  TGI: > 100 µM
[7]
  TGI: > 100 µM
[8]
  TGI: > 100 µM
[9]
  TGI: > 100 µM
[10]
  TGI: > 100 µM
[11]
  TGI: > 100 µM
[12]
  TGI: > 100 µM
[13]
  TGI: > 100 µM
[14]
  TGI: > 100 µM
[15]
  TGI: > 100 µM
[16]
  TGI: > 100 µM
[17]
  TGI: > 100 µM
[18]
  TGI: > 100 µM
[19]
  TGI: > 100 µM
[20]
  TGI: > 100 µM
[21]
  TGI: > 100 µM
[22]
  TGI: > 100 µM
[23]
  TGI: > 100 µM
[24]
  TGI: > 100 µM
[25]
  TGI: > 100 µM
[26]
  TGI: > 100 µM
[27]
  TGI: > 100 µM
[28]
  TGI: > 100 µM
[29]
  TGI: > 100 µM
[30]
  TGI: > 100 µM
[31]
  TGI: > 100 µM
[32]
  TGI: > 100 µM
[33]
  TGI: > 100 µM
[34]
  TGI: > 100 µM
[35]
  TGI: > 100 µM
[36]
  TGI: > 100 µM
[37]
  TGI: > 100 µM
[38]
  TGI: > 100 µM
[39]
  TGI: > 100 µM
[40]
  TGI: > 100 µM
[41]
  TGI: > 100 µM
[42]
  TGI: > 100 µM
[43]
  TGI: > 100 µM
[44]
  TGI: > 100 µM
[45]
  TGI: > 100 µM
[46]
  TGI: > 100 µM
[47]
  TGI: > 100 µM
[48]
  TGI: > 100 µM
[49]
  TGI: > 100 µM
[50]
  TGI: > 100 µM
[51]
  TGI: > 100 µM
[52]
  TGI: > 100 µM
[53]
  TGI: > 100 µM
[54]
  TGI: > 100 µM
[55]
  TGI: > 100 µM

## NNC(=S)NCCNC(=S)NN
[2]
  TGI: > 100 µM
[3]
  TGI: > 100 µM
[4]
  TGI: > 100 µM
[5]
  TGI: > 100 µM
[6]
  TGI: > 100 µM
[56]
  TGI: > 100 µM
[7]
  TGI: > 100 µM
[9]
  TGI: > 100 µM
[11]
  TGI: > 100 µM
[12]
  TGI: > 100 µM
[13]
  TGI: > 100 µM
[14]
  TGI: > 100 µM
[15]
  TGI: > 100 µM
[18]
  TGI: > 100 µM
[19]
  TGI: > 100 µM
[20]
  TGI: > 100 µM
[21]
  TGI: > 100 µM
[22]
  TGI: > 100 µM
[24]
  TGI: > 100 µM
[25]
  TGI: > 100 µM
[57]
  TGI: > 100 µM
[26]
  TGI: > 100 µM
[28]
  TGI: > 100 µM
[29]
  TGI: > 100 µM
[32]
  TGI: > 100 µM
[33]
  TGI: > 100 µM
[34]
  TGI: > 100 µM
[35]
  TGI: > 100 µM
[36]
  TGI: > 100 µM
[37]
  TGI: > 100 µM
[38]
  TGI: > 100 µM
[39]
  TGI: > 100 µM
[40]
  TGI: > 100 µM
[41]
  TGI: > 100 µM
[58]
  TGI: > 100 µM
[42]
  TGI: > 100 µM
[43]
  TGI: > 100 µM
[44]
  TGI: > 100 µM
[45]
  TGI: > 100 µM
[46]
  TGI: > 100 µM
[47]
  TGI: > 100 µM
[48]
  TGI: > 100 µM
[49]
  TGI: > 100 µM
[50]
  TGI: > 100 µM
[52]
  TGI: > 100 µM
[53]
  TGI: > 100 µM
[54]
  TGI: > 100 µM
[55]
  TGI: > 100 µM

## O=C(N=c1ccc2nc(=O)[nH]n(O)c-2c1)C(F)(F)F
[1]
  TGI: > 100 µM
[2]
  TGI: > 100 µM
[3]
  TGI: > 100 µM
[4]
  TGI: > 100 µM
[5]
  TGI: > 100 µM
[6]
  TGI: > 100 µM
[56]
  TGI: > 100 µM
[7]
  TGI: > 100 µM
[8]
  TGI: > 100 µM
[9]
  TGI: > 100 µM
[10]
  TGI: > 100 µM
[11]
  TGI: > 100 µM
[12]
  TGI: > 100 µM
[13]
  TGI: > 100 µM
[14]
  TGI: > 100 µM
[15]
  TGI: > 100 µM
[18]
  TGI: > 100 µM
[19]
  TGI: > 100 µM
[20]
  TGI: > 100 µM
[22]
  TGI: > 100 µM
[23]
  TGI: > 100 µM
[24]
  TGI: > 100 µM
[25]
  TGI: > 100 µM
[57]
  TGI: > 100 µM
[59]
  TGI: > 100 µM
[26]
  TGI: > 100 µM
[27]
  TGI: > 100 µM
[28]
  TGI: > 100 µM
[29]
  TGI: > 100 µM
[30]
  TGI: > 100 µM
[31]
  TGI: > 100 µM
[32]
  TGI: > 100 µM
[33]
  TGI: > 100 µM
[34]
  TGI: > 100 µM
[35]
  TGI: > 100 µM
[36]
  TGI: > 100 µM
[37]
  TGI: > 100 µM
[38]
  TGI: > 100 µM
[40]
  TGI: > 100 µM
[41]
  TGI: > 100 µM
[58]
  TGI: > 100 µM
[42]
  TGI: > 100 µM
[43]
  TGI: > 100 µM
[44]
  TGI: > 100 µM
[45]
  TGI: > 100 µM
[46]
  TGI: > 100 µM
[47]
  TGI: > 100 µM
[48]
  TGI: > 100 µM
[49]
  TGI: > 100 µM
[50]
  TGI: > 100 µM
[51]
  TGI: > 100 µM
[52]
  TGI: > 100 µM
[53]
  TGI: > 100 µM
[54]
  TGI: > 100 µM
[55]
  TGI: > 100 µM

## COc1ccc2c3c([nH]c2c1)CCN(CCCC(=O)c1ccc(F)cc1)C3
[1]
  TGI: 29.7 µM
[2]
  TGI: 25.6 µM
[3]
  TGI: 26.7 µM
[4]
  TGI: 30.8 µM
[5]
  TGI: 27 µM
[6]
  TGI: 32 µM
[56]
  TGI: 24.8 µM
[7]
  TGI: 29.7 µM
[8]
  TGI: 33.2 µM
[9]
  TGI: 31.7 µM
[10]
  TGI: 36.7 µM
[11]
  TGI: 36.4 µM
[13]
  TGI: 18.3 µM
[14]
  TGI: 34.8 µM
[15]
  TGI: 29.4 µM
[16]
  TGI: 28.5 µM
[18]
  TGI: 27.1 µM
[19]
  TGI: 32.2 µM
[20]
  TGI: 34.4 µM
[21]
  TGI: 27 µM
[22]
  TGI: 42.8 µM
[23]
  TGI: 33.9 µM
[24]
  TGI: 37 µM
[25]
  TGI: 27.1 µM
[57]
  TGI: 32.9 µM
[59]
  TGI: 22.3 µM
[26]
  TGI: 32.7 µM
[27]
  TGI: 29.1 µM
[28]
  TGI: 27.5 µM
[29]
  TGI: 54.9 µM
[30]
  TGI: 31.6 µM
[31]
  TGI: 44.9 µM
[32]
  TGI: 28.9 µM
[33]
  TGI: 31 µM
[34]
  TGI: 26 µM
[35]
  TGI: 36.2 µM
[36]
  TGI: 25.8 µM
[37]
  TGI: 34.1 µM
[38]
  TGI: 32 µM
[39]
  TGI: 17.7 µM
[40]
  TGI: 31.8 µM
[41]
  TGI: 27.4 µM
[58]
  TGI: 36.6 µM
[42]
  TGI: 31.2 µM
[43]
  TGI: 29.3 µM
[44]
  TGI: 36.6 µM
[45]
  TGI: 32.8 µM
[46]
  TGI: 32.1 µM
[47]
  TGI: 37.3 µM
[48]
  TGI: 25.5 µM
[49]
  TGI: 33.2 µM
[50]
  TGI: 25 µM
[51]
  TGI: 29.1 µM
[52]
  TGI: 35.1 µM
[53]
  TGI: 33.9 µM
[54]
  TGI: 31.7 µM
[55]
  TGI: 28.2 µM
